Experimental data reported in PubChem BioAssay AID256 (DTP/NCI, 2004).
Where “and” joins values, the source holds several entries; their conditions need not be identical. Equal values may be shown once. Inconclusive results and toxic doses are left out. The calls were made as follows: active = survival T/C of 150% or more; inactive = T/C below 125% in these data.

Test system: CD2F1 mice, L1210 leukemia ip, survival T/C
Experiment: NCI In Vivo Anticancer Drug Screen. Data for tumor model L1210 Leukemia (intraperitoneal) in CD2F1 (CDF1) mice
Conditions: higher = longer survival
Summary of the method: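 Vehicle-treated tumor-bearing mice served as controls (C) for compound-treated mice (T). Reported figure is T divided by C.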

[1] = endpoint: mean survival time, dose: 100.0 mg/kg/injection, schedule: Q01DX009 (ip), vehicle: saline with Tween-80
[2] = endpoint: mean survival time, dose: 100.0 mg/kg/injection, schedule: Q04DX003 (ip), vehicle: saline with Tween-80
[3] = endpoint: mean survival time, dose: 200.0 mg/kg/injection, schedule: Q01DX009 (ip), vehicle: saline with Tween-80
[4] = endpoint: mean survival time, dose: 200.0 mg/kg/injection, schedule: Q04DX003 (ip), vehicle: saline with Tween-80
[5] = endpoint: mean survival time, dose: 400.0 mg/kg/injection, schedule: Q01DX009 (ip), vehicle: saline with Tween-80
[6] = endpoint: mean survival time, dose: 400.0 mg/kg/injection, schedule: Q04DX003 (ip), vehicle: saline with Tween-80
[7] = endpoint: mean survival time, dose: 25.0 mg/kg/injection, schedule: Q01DX009 (ip), vehicle: saline with Tween-80
[8] = endpoint: mean survival time, dose: 100.0 mg/kg/injection, schedule: Q04DX002 (ip), vehicle: saline with Tween-80

Measured: T/C

CCCCCCCCCCCCCCNC(=O)Nc1ccc(Cl)c(Cl)c1
inactive: endpoint: mean survival time, dose: 100.0 mg/kg/injection, schedule: Q04DX003 (ip), vehicle: other 89 % of control | endpoint: mean survival time, dose: 200.0 mg/kg/injection, schedule: Q04DX003 (ip), vehicle: other 86 % of control

O=[N+]([O-])c1ccc(N2CCOCC2)c([N+](=O)[O-])c1
inactive: [1] 103 % of control | [2] 97 % of control | [3] 100 % of control | [4] 103 % of control | [5] 97 % of control | [6] 100 % of control

NC(=O)NN=C1CCC(CC2CCCCC2)CC1 (stereo unspecified)
inactive: [2] 112 % of control

Oc1ccccc1C=NCCC[N-]CCCN=Cc1ccccc1O.[Co]
inactive: endpoint: mean survival time, dose: 6.25 mg/kg/injection, schedule: Q01DX009 (ip), vehicle: saline 102 % of control and 103 % of control | endpoint: mean survival time, dose: 12.5 mg/kg/injection, schedule: Q01DX009 (ip), vehicle: saline 100 % of control and 103 % of control | endpoint: mean survival time, dose: 25.0 mg/kg/injection, schedule: Q01DX009 (ip), vehicle: saline 110 % of control and 111 % of control | endpoint: mean survival time, dose: 50.0 mg/kg/injection, schedule: Q01DX009 (ip), vehicle: saline 113 % of control and 100 % of control | endpoint: mean survival time, dose: 100.0 mg/kg/injection, schedule: Q01DX009 (ip), vehicle: saline 104 % of control

NC(=O)c1ncn(C2OC3COP(=O)(O)OC3C2O)c1N (stereo unspecified)
inactive: endpoint: median survival time, dose: 44.6 mg/kg/injection, schedule: Q01DX005 (ip), vehicle: saline 98 % of control | endpoint: median survival time, dose: 89.2 mg/kg/injection, schedule: Q01DX005 (ip), vehicle: saline 101 % of control | endpoint: median survival time, dose: 178.5 mg/kg/injection, schedule: Q01DX005 (ip), vehicle: saline 93 % of control

NCCc1c[nH]c2ccccc12
inactive: [1] 93 % of control | [3] 95 % of control | [5] 98 % of control

O=C(CCO)CC(=O)CCc1ccccc1Cl
inactive: [2] 97 % of control | [4] 103 % of control | [6] 91 % of control

NP(=O)(Oc1ccccc1)Oc1ccccc1
inactive: [7] 96 % of control | [2] 90 % of control

O=C(O)C1C2CCC1C(O)C2 (stereo unspecified)
inactive: [1] 94 % of control | [3] 94 % of control | [5] 88 % of control

CCN(CC)P(=O)(NCCCl)OC (stereo unspecified)
inactive: endpoint: mean survival time, dose: 100.0 mg/kg/injection, schedule: Q01DX009 (ip), vehicle: DMSO 103 % of control

OCC1OC(n2cnc3c(Nc4ccccc4)ncnc32)C(O)C1O (stereo unspecified)
inactive: endpoint: mean survival time, dose: 12.5 mg/kg/injection, schedule: Q01DX005 (ip), vehicle: distilled water + Tween-80 102 % of control | endpoint: mean survival time, dose: 25.0 mg/kg/injection, schedule: Q01DX005 (ip), vehicle: distilled water + Tween-80 100 % of control | endpoint: mean survival time, dose: 50.0 mg/kg/injection, schedule: Q01DX005 (ip), vehicle: distilled water + Tween-80 100 % of control | endpoint: mean survival time, dose: 100.0 mg/kg/injection, schedule: Q01DX005 (ip), vehicle: distilled water + Tween-80 94 % of control | endpoint: mean survival time, dose: 200.0 mg/kg/injection, schedule: Q01DX005 (ip), vehicle: distilled water + Tween-80 98 % of control

COc1nc(NC2OC(CO)C(O)C(O)C2O)c(I)c(=O)[nH]1 (stereo unspecified)
inactive: endpoint: median survival time, dose: 12.5 mg/kg/injection, schedule: Q01DX005 (ip), vehicle: saline 109 % of control | endpoint: median survival time, dose: 25.0 mg/kg/injection, schedule: Q01DX005 (ip), vehicle: saline 107 % of control | endpoint: median survival time, dose: 50.0 mg/kg/injection, schedule: Q01DX005 (ip), vehicle: saline 100 % of control | endpoint: median survival time, dose: 100.0 mg/kg/injection, schedule: Q01DX005 (ip), vehicle: saline 101 % of control | endpoint: median survival time, dose: 200.0 mg/kg/injection, schedule: Q01DX005 (ip), vehicle: saline 100 % of control

NC(C(=O)O)C(O)c1ccc2c(c1)OCO2 (stereo unspecified)
inactive: [2] 98 % of control | [4] 92 % of control | [6] 95 % of control

CS(C)=O.[Cl-].[Cl-].[NH-]CC(O)C[N-]CC(O)CN.[Pt+4] (stereo unspecified)
inactive: endpoint: median survival time, dose: 10.0 mg/kg/injection, schedule: Q04DX003 (ip), vehicle: saline 97 % of control | endpoint: median survival time, dose: 20.0 mg/kg/injection, schedule: Q04DX003 (ip), vehicle: saline 111 % of control | endpoint: median survival time, dose: 40.0 mg/kg/injection, schedule: Q04DX003 (ip), vehicle: saline 108 % of control | endpoint: median survival time, dose: 50.0 mg/kg/injection, schedule: Q04DX003 (ip), vehicle: saline 94 % of control | endpoint: median survival time, dose: 80.0 mg/kg/injection, schedule: Q04DX003 (ip), vehicle: saline 98 % of control

O=C(O)c1ccccc1-c1ccccc1C(=O)Nc1ccc2c(c1)Cc1ccccc1-2
inactive: endpoint: mean survival time, dose: 62.5 mg/kg/injection, schedule: Q04DX003 (ip), vehicle: saline with Tween-80 101 % of control | endpoint: mean survival time, dose: 125.0 mg/kg/injection, schedule: Q04DX003 (ip), vehicle: saline with Tween-80 98 % of control | endpoint: mean survival time, dose: 250.0 mg/kg/injection, schedule: Q04DX003 (ip), vehicle: saline with Tween-80 98 % of control

CCCCCCCCNC(C)=O
inactive: endpoint: mean survival time, dose: 6.25 mg/kg/injection, schedule: Q01DX009 (ip), vehicle: saline with Tween-80 93 % of control | endpoint: mean survival time, dose: 12.5 mg/kg/injection, schedule: Q01DX009 (ip), vehicle: saline with Tween-80 90 % of control | [7] 94 % of control

COc1cc(C=Nc2cccc3ccccc23)cc(OC)c1OC
inactive: endpoint: mean survival time, dose: 100.0 mg/kg/injection, schedule: Q01DX001 (ip), vehicle: saline with Tween-80 98 % of control | [1] 88 % of control and 93 % of control | [8] 89 % of control and 100 % of control | [2] 103 % of control | endpoint: mean survival time, dose: 200.0 mg/kg/injection, schedule: Q01DX001 (ip), vehicle: saline with Tween-80 95 % of control | [3] 91 % of control and 96 % of control | endpoint: mean survival time, dose: 200.0 mg/kg/injection, schedule: Q04DX002 (ip), vehicle: saline with Tween-80 89 % of control and 96 % of control | [4] 96 % of control | endpoint: mean survival time, dose: 400.0 mg/kg/injection, schedule: Q01DX001 (ip), vehicle: saline with Tween-80 88 % of control | [5] 92 % of control and 95 % of control | endpoint: mean survival time, dose: 400.0 mg/kg/injection, schedule: Q04DX002 (ip), vehicle: saline with Tween-80 96 % of control and 100 % of control | [6] 92 % of control

CN(C)C(=S)SCC(=O)O
inactive: endpoint: mean survival time, dose: 100.0 mg/kg/injection, schedule: Q04DX003 (ip), vehicle: saline 95 % of control | endpoint: mean survival time, dose: 200.0 mg/kg/injection, schedule: Q04DX003 (ip), vehicle: saline 96 % of control | endpoint: mean survival time, dose: 400.0 mg/kg/injection, schedule: Q04DX003 (ip), vehicle: saline 102 % of control

Cn1cnc([N+](=O)[O-])c1Sc1cn(C2CC(O)C(CO)O2)c(=O)[nH]c1=O (stereo unspecified)
inactive: endpoint: mean survival time, dose: 12.5 mg/kg/injection, schedule: Q01DX005 (ip), vehicle: water 102 % of control | endpoint: mean survival time, dose: 25.0 mg/kg/injection, schedule: Q01DX005 (ip), vehicle: water 102 % of control | endpoint: mean survival time, dose: 50.0 mg/kg/injection, schedule: Q01DX005 (ip), vehicle: water 104 % of control | endpoint: mean survival time, dose: 100.0 mg/kg/injection, schedule: Q01DX005 (ip), vehicle: water 98 % of control | endpoint: mean survival time, dose: 200.0 mg/kg/injection, schedule: Q01DX005 (ip), vehicle: water 106 % of control

CC(=O)OCC(O)C(O)C(O)C(O)CO (stereo unspecified)
inactive: [1] 109 % of control | [3] 94 % of control | [5] 96 % of control

NNC(=O)c1cccc[n+]1[O-]
inactive: endpoint: mean survival time, dose: 12.5 mg/kg/injection, schedule: Q01DX001 (ip), vehicle: water 98 % of control | endpoint: mean survival time, dose: 25.0 mg/kg/injection, schedule: Q01DX001 (ip), vehicle: water 96 % of control | endpoint: mean survival time, dose: 50.0 mg/kg/injection, schedule: Q01DX001 (ip), vehicle: water 93 % of control | endpoint: mean survival time, dose: 100.0 mg/kg/injection, schedule: Q01DX001 (ip), vehicle: water 102 % of control

[NH-]C1CCCCC1[NH-].[NH-]C1CCCCC1[NH-].[Ni] (stereo unspecified)
inactive: [8] 110 % of control
